Data taken from patent US20230276804A1, “A PESTICIDALLY ACTIVE MIXTURE COMPRISING PYRAZOLOPYRIDINE ANTHRANILAMIDE COMPOUND, OXIDES OR SALTS THEREOF” (priority 2020, published 2023).

Tests used:
Assay type in all cases: in vivo
Helicoverpa armigera = test: Diet incorporation method against Helicoverpa armigera (Example A); conditions: single compound, 96 h
Experimental: The diet incorporation method was used, in which semi-synthetic diet was incorporated into the test solutions consisting either of the single compounds or respective compound combinations, when the temperature was approximately 50° C. in the bio-assay containers, then stirred thoroughly for proper mixing and allowed to cool for 30 min. The solidified diet was cut into equal pieces, and then each piece was transferred into one cell of a bio-assay tray. A single starved third instar larva was released into each of these cells of the bio-assay trays and the tray was covered with a lid. The bio-assay trays were kept under laboratory conditions at a temperature of 25° C. and relative humidity of 70%. Observations on dead, moribund and live larvae were recorded 96 h after the release of the larvae. Percent mortality was calculated by combining dead and moribund larvae and comparing the result to the one of the untreated control. The results are shown for the compound of formula (I-III) in Table A.

Spodoptera litura = test: Diet incorporation method against Spodoptera litura (Example B); conditions: single compound, 96 h
Experimental: The diet incorporation method was used, in which semi-synthetic diet was incorporated into the test solution consisting either of the single compound or respective compound combinations, when the temperature was approximately 50° C. in the bioassay containers, then stirred thoroughly for proper mixing and allowed to cool for 30 min. The solidified diet was cut into equal pieces, and then each piece was transferred into one cell of the bio-assay trays. A single starved third instar larva was released into each of these cells of the bio-assay trays and the tray was covered with a lid. The bio-assay trays were kept under laboratory conditions at a temperature of 25° C. and relative humidity of 70%. Observations on dead, moribund and live larvae were recorded 96 h after the release. Percent mortality was calculated by combining dead and moribund larvae and comparing the result with the one of the untreated control. The results are shown for the compound of formula (I-III) in Table B.

Plutella xylostella = test: Leaf dip method (cabbage leaves) against Plutella xylostella (Example C); conditions: single compound, 72 h
Experimental: The leaf dip method was used, wherein the required quantity of the compound or respective compound combinations were weighed and dissolved in a test solution prepared in tubes. The tubes were put on a vortex at 2000 rpm for 90 min for proper mixing and then the test solutions were diluted with 0.01% Triton-X to the desired test concentration. Cabbage leaves were dipped into the solution for 10 seconds, shade dried for 20 min and then transferred to single cells of bioassay trays. A single second instar larva was released into each cell and the tray was covered with a lid. The bio-assay trays were kept under laboratory conditions at a temperature of 25° C. and relative humidity of 70%. Observations on dead, moribund and live larvae were recorded 72 h after the release. Percent mortality was calculated by combining dead and moribund larvae and comparing the result with the one of the untreated control. The results are shown for compound of formula (I-III) in Table C.

Alternaria solani = test: Preventive glasshouse test against Alternaria solani in tomato (Example G); conditions: single compound
Experimental: The single compounds or respective compound combinations were dissolved in 2% dimethyl sulfoxide/acetone and then mixed with water containing emulsifier to a calibrated spray volume of 50 mL. The test solutions were poured into spray bottles for further applications.
(§1) To test the preventive activity, healthy young tomato plants, raised in the greenhouse, were sprayed with the active compound preparation at the stated application rates inside the spray cabinets using hollow cone nozzles. One day after treatment, the plants were inoculated with a spore suspension containing 0.24×10^6 Alternaria solani inoculum and 2% Malt. The inoculated plants were then kept in a greenhouse chamber at a temperature of 22-24° C. and 90-95% relative humidity for disease expression.
A visual assessment of the performance of the single compounds or compound combinations was carried out by rating the disease severity (0-100% scale) on treated plants 3, 7, 10 and 15 days after application. Efficacy (% control) of the single compounds and mixtures was calculated by comparing the disease rating in the treatment with the one of the untreated control. The compounds were also assessed for their plant compatibility by recording symptoms like necrosis, chlorosis and stunting. The results have been described for the compound of formula (I-III) in Table G.

Phakopsora pachyrhizi = test: Preventive glasshouse test against Phakopsora pachyrhizi in soybean (Example H); conditions: single compound
Experimental: The single compounds or the respective compound combinations were dissolved in 2% dimethyl sulfoxide/acetone and then mixed with water containing an emulsifier to a calibrated spray volume of 50 ml. The test solutions were poured into spray bottles for further applications.
as §1, with “activity of compounds,” for “activity,”, “Soybean” for “tomato”, “a” for “a spore”, “2×10^5 Phakopsora pachyrhizi conidia.” for “0.24×10^6 Alternaria solani inoculum and 2% Malt.”, “80-90%” for “90-95%”
A visual assessment of the performance of the single compounds and respective compound combinations was carried out by rating the disease severity (0-100% scale) on treated plants 3, 7, 10 and 15 days after application. Efficacy (% control) of the compounds was calculated by comparing the disease rating in the treatment with the one of the untreated control. The compounds were also assessed for their plant compatibility by recording symptoms like necrosis, chlorosis and stunting. The results have been described for the compound of formula (I-III) in Table H.

Erysiphe cichoracearum = test: Preventive glasshouse test against Erysiphe cichoracearum in cucumber (Example K); conditions: single compound, Conc. 100 ppm
Experimental: The single compounds or the respective compound combinations were dissolved in 2% dimethyl sulfoxide/acetone and then mixed with water containing emulsifier to a calibrated spray volume of 50 mL. The test solutions were poured into spray bottles for further applications.
as §1, with “activity of compounds,” for “activity,”, “cucumber” for “tomato”, “conidial” for “spore”, “2×10^5 Erysiphe cichoracearum inoculum.” for “0.24×10^6 Alternaria solani inoculum and 2% Malt.”, “50-60%” for “90-95%”
A visual assessment of the performance of the compounds and the respective compound combinations was carried out by rating the disease severity (0-100% scale) on treated plants 3, 7, 10 and 15 days after application. Efficacy (% control) of the single compounds or compound combinations was calculated by comparing the disease rating in the treatment with the one of the untreated control. The compounds were also assessed for their plant compatibility by recording symptoms like necrosis, chlorosis and stunting. The results have been described for the compound of formula (I-III) in Table K.

[1] = Helicoverpa armigera, 100 ppm, read-out: Observed Efficacy (%)
[2] = Spodoptera litura, 100 ppm, read-out: Observed Efficacy (%)
[3] = Spodoptera litura, read-out: Observed Efficacy (%)

For CN/C(=N\[N+](=O)[O-])NCc1cnc(Cl)s1 [Clothianidin], the pest or weed control at 10 ppm (Helicoverpa armigera; Helicoverpa armigera, 10 ppm, read-out: Observed Efficacy (%)) was 12.5%, the pest or weed control at 20 ppm (Helicoverpa armigera; Helicoverpa armigera, 20 ppm, read-out: Observed Efficacy (%)) was 25% and the pest or weed control at 20 ppm (Spodoptera litura; Spodoptera litura, 20 ppm, read-out: Observed Efficacy (%)) was 0%.

CON=CNC(=O)c1ccc(C2=NOC(c3cc(Cl)cc(Cl)c3)(C(F)(F)F)C2)cc1C (stereo not shown) [Fluxametamid] was tested, and the “Observed Efficacy (%)” value (Plutella xylostella; 0.05 ppm) was 0% and the “Observed Efficacy (%)” value (Plutella xylostella; 0.1 ppm) was 0%.

With CN(C(=O)c1ccccc1)c1cccc(C(=O)Nc2c(Br)cc(C(F)(C(F)(F)F)C(F)(F)F)cc2C(F)(F)F)c1F [Broflanilide] the “Observed Efficacy (%)” value (Helicoverpa armigera; 0.05 ppm) was 0%, the “Observed Efficacy (%)” value (Helicoverpa armigera; 0.1 ppm) was 12.5% and the “Observed Efficacy (%)” value (Spodoptera litura; 0.05 ppm) was 0%.

For CCS(=O)(=O)c1cccnc1-c1nc2cc(S(=O)(=O)C(F)(F)F)ccc2o1 [Oxazosulfyl, 2-[3-(ethanesulfonyl)pyridin-2-yl]-5-[trifluoro(methanesulfonyl)]-1,3-benzoxazole], the pest or weed control at 100 ppm (Helicoverpa armigera; [1]) was 12.5% and the “Observed Efficacy (%)” value (Plutella xylostella; 0.1 ppm) was 0%.

With CCN(C(=O)c1cnn(C(C)C(C)C)c1C)c1ccnnc1 (stereo not shown) [Dimpropyridaz] the “Observed Efficacy (%)” value (Spodoptera litura; 100 ppm) was 0% and the “Observed Efficacy (%)” value (Plutella xylostella; 0.1 ppm) was 12.5%.

For COC(=O)NC(=S)Nc1ccccc1NC(=S)NC(=O)OC [Thiophanate-methyl], the pest or weed control at 100 ppm (Helicoverpa armigera; [1]) was 0%, the pest or weed control at 200 ppm (Helicoverpa armigera; Helicoverpa armigera, 200 ppm, read-out: Observed Efficacy (%)) was 0% and the pest or weed control at 500 ppm (Helicoverpa armigera; Helicoverpa armigera, 500 ppm, read-out: Observed Efficacy (%)) was 0%. For the same molecule, the “Observed Efficacy (%)” value (Alternaria solani; 10 ppm) was 36%, the “Observed Efficacy (%)” value (Alternaria solani; 50 ppm) was 36% and the pest or weed control at 100 ppm (Spodoptera litura; [2]) was 0%. The pest or weed control at 200 ppm (Spodoptera litura; [3]) was 0% and the pest or weed control at 500 ppm (Spodoptera litura; [3]) was 0%.

For N#Cc1nn(-c2c(Cl)cc(C(F)(F)F)cc2Cl)c(N)c1[S+]([O-])C(F)(F)F (stereo not shown) [Fipronil], the “Observed Efficacy (%)” value (Plutella xylostella; 0.001 ppm) was 0%.

CCN1OCC(NC(=O)c2ccc(C3=NOC(c4cc(Cl)c(F)c(Cl)c4)(C(F)(F)F)C3)cc2C)C1=O (stereo not shown) [Isocycloseram] was tested, and the “Observed Efficacy (%)” value (Spodoptera litura; 10 ppm) was 12.5% and the “Observed Efficacy (%)” value (Plutella xylostella; 0.1 ppm) was 87.5%.

For N#Cc1ccc(CC(=NNC(=O)Nc2ccc(OC(F)(F)F)cc2)c2cccc(C(F)(F)F)c2)cc1 (mixture of isomers) [Metaflumizone], the “Observed Efficacy (%)” value (Plutella xylostella; 0.01 ppm) was 25% and the “Observed Efficacy (%)” value (Plutella xylostella; 0.1 ppm) was 0%.

With Spinetoram the “Observed Efficacy (%)” value (Helicoverpa armigera; 0.5 ppm) was 25% and the “Observed Efficacy (%)” value (Plutella xylostella; 0.05 ppm) was 62.5%.

In the case of N#Cc1c[nH]cc1-c1cccc2c1OC(F)(F)O2 [Fludioxonil], the “Observed Efficacy (%)” value (Phakopsora pachyrhizi; 2.0 ppm) is reported as 19%, the “Observed Efficacy (%)” value (Phakopsora pachyrhizi; 10.0 ppm) is reported as 28% and the pest or weed control at 100 ppm (Spodoptera litura; [2]) is reported as 37.5%. For the same molecule, the pest or weed control at 200 ppm (Spodoptera litura; [3]) was 25%.

With CCc1nc2cc(C)c(Oc3ccc(OC(F)(F)F)cc3)cc2c(OC(=O)OC)c1C [Flometoquin] the “Observed Efficacy (%)” value (Plutella xylostella; 0.005 ppm) was 12.5%.

With Cc1c(COC(=O)[C@@H]2[C@H](/C=C(\Cl)C(F)(F)F)C2(C)C)cccc1-c1ccccc1 (racemic) [Bifenthrin] the pest or weed control at 1 ppm (Helicoverpa armigera; Helicoverpa armigera, 1 ppm, read-out: Observed Efficacy (%)) was 0%, the “Observed Efficacy (%)” value (Plutella xylostella; 0.5 ppm) was 12.5% and the “Observed Efficacy (%)” value (Plutella xylostella; 1 ppm) was 25%.

For O=[N+]([O-])NC1=NCCN1Cc1ccc(Cl)nc1 [Imidacloprid], the pest or weed control at 50 ppm (Helicoverpa armigera; Helicoverpa armigera, 50 ppm, read-out: Observed Efficacy (%)) was 0%, the pest or weed control at 100 ppm (Spodoptera litura; [2]) was 0% and the “Observed Efficacy (%)” value (Plutella xylostella; 0.1 ppm) was 0%.

CCN(C(=O)CCSCCC(F)(F)F)c1cn(-c2cccnc2)nc1Cl [Tyclopyrazoflor] was tested, and the “Observed Efficacy (%)” value (Spodoptera litura; 100 ppm) was 0% and the “Observed Efficacy (%)” value (Plutella xylostella; 0.1 ppm) was 0%.

In the case of C[C@]1(COC(=O)C2CC2)[C@@H]2C[C@H](O)[C@@]3(C)Oc4cc(-c5cccnc5)oc(=O)c4[C@H](O)[C@@H]3[C@@]2(C)CC[C@@H]1OC(=O)C1CC1 [Afidopyropen], the “Observed Efficacy (%)” value (Spodoptera litura; 50 ppm) is reported as 0%, the “Observed Efficacy (%)” value (Spodoptera litura; 100 ppm) is reported as 0% and the “Observed Efficacy (%)” value (Plutella xylostella; 0.1 ppm) is reported as 0%.

For O=c1c(-c2cccc(C(F)(F)F)c2)c([O-])[n+](Cc2cncnc2)c2ccccn12 [Triflumezopyrim], the “Observed Efficacy (%)” value (Helicoverpa armigera; 50 ppm) was 12.5%, the “Observed Efficacy (%)” value (Helicoverpa armigera; 100 ppm) was 0% and the “Observed Efficacy (%)” value (Spodoptera litura; 50 ppm) was 25%.

With Emamectin benzoate the “Observed Efficacy (%)” value (Helicoverpa armigera; 0.1 ppm) was 12.5%, the “Observed Efficacy (%)” value (Spodoptera litura; 0.05 ppm) was 12.5% and the “Observed Efficacy (%)” value (Spodoptera litura; 0.1 ppm) was 25%.

For COC(=O)N(C(=O)N1CO[C@@]2(C(=O)OC)Cc3cc(Cl)ccc3C2=N1)c1ccc(OC(F)(F)F)cc1 [Indoxacarb], the “Observed Efficacy (%)” value (Helicoverpa armigera; 0.1 ppm) was 0% and the “Observed Efficacy (%)” value (Spodoptera litura; 0.1 ppm) was 0%.

In the case of Spinosad, the “Observed Efficacy (%)” value (Helicoverpa armigera; 0.2 ppm) is reported as 12.5% and the “Observed Efficacy (%)” value (Spodoptera litura; 0.2 ppm) is reported as 0%.

In the case of Abamectin, the “Observed Efficacy (%)” value (Plutella xylostella; 0.001 ppm) is reported as 12.5% and the “Observed Efficacy (%)” value (Plutella xylostella; 0.005 ppm) is reported as 25%.

For CC(COc1ccc(Oc2ccccc2)cc1)Oc1ccccn1 (stereo not shown) [Pyriproxyfen], the “Observed Efficacy (%)” value (Plutella xylostella; 0.05 ppm) was 12.5%, the “Observed Efficacy (%)” value (Plutella xylostella; 0.1 ppm) was 25% and the “Observed Efficacy (%)” value (Plutella xylostella; 1 ppm) was 12.5%.

For COCC(=O)N(c1c(C)cccc1C)C(C)C(=O)OC (stereo not shown) [Metalaxyl], the “Observed Efficacy (%)” value (Alternaria solani; 50 ppm) was 22%, the “Observed Efficacy (%)” value (Alternaria solani; 100 ppm) was 22% and the “Observed Efficacy (%)” value (Erysiphe cichoracearum) was 31%. It also gave a pest or weed control at 200 ppm (Spodoptera litura; [3]) of 0% and a pest or weed control at 500 ppm (Spodoptera litura; [3]) of 0%.

Molecule CN1COCN(Cc2cnc(Cl)s2)/C1=N\[N+](=O)[O-] [Thiamethoxam] has a pest or weed control at 100 ppm (Helicoverpa armigera; [1]) of 25%, a pest or weed control at 50 ppm (Spodoptera litura; Spodoptera litura, 50 ppm, read-out: Observed Efficacy (%)) of 0% and a pest or weed control at 100 ppm (Spodoptera litura; [2]) of 0%. The “Observed Efficacy (%)” value (Plutella xylostella; 1 ppm) was 12.5%.

In the case of CC1=NNC(=O)N(/N=C/c2cccnc2)C1 [Pymetrozine], the “Observed Efficacy (%)” value (Plutella xylostella; 0.01 ppm) is reported as 0%, the “Observed Efficacy (%)” value (Plutella xylostella; 0.05 ppm) is reported as 0% and the “Observed Efficacy (%)” value (Plutella xylostella; 1 ppm) is reported as 12.5%.
